In ChEMBL document CHEMBL1201862, “PubChem BioAssay data set” (2004):
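Cells were grown in 96-well plates and exposed to each compound for 48 hours at five concentrations; endpoints were interpolated linearly between bracketing concentrations, or set to the highest concentration if not reached. GI50: concentration for 50% inhibition of growth.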 Calls of active or inactive are those of the source. Cut-off read from the data, not from the text of the source: active = GI50 up to about 1.1 µM and inactive = higher.

Assays:
Test in all cases: NCI-60 cell line screen, 48 h
[1] = test system: 786-0
[2] = test system: A498
[3] = test system: A549
[4] = test system: ACHN
[5] = test system: BT-549
[6] = test system: CAKI-1
[7] = test system: COLO 205
[8] = test system: DU-145
[9] = test system: EKVX
[10] = test system: HCC 2998
[11] = test system: HCT-116
[12] = test system: HCT-15
[13] = test system: HOP-62
[14] = test system: HOP-92
[15] = test system: Hs-578T
[16] = test system: IGROV-1
[17] = test system: K562
[18] = test system: KM12
[19] = test system: LOX IMVI
[20] = test system: M14
[21] = test system: MCF7
[22] = test system: MDA-MB-231
[23] = test system: MDA-MB-435
[24] = test system: MDA-N
[25] = test system: MOLT-4
[26] = test system: Malme-3M
[27] = test system: NCI-H226
[28] = test system: NCI-H23
[29] = test system: NCI-H460
[30] = test system: NCI/ADR-RES
[31] = test system: OVCAR-3
[32] = test system: OVCAR-4
[33] = test system: OVCAR-5
[34] = test system: OVCAR-8
[35] = test system: PC-3
[36] = test system: RPMI-8226
[37] = test system: RXF 393
[38] = test system: SF-268
[39] = test system: SF-295
[40] = test system: SK-MEL-28
[41] = test system: SK-MEL-2
[42] = test system: SK-OV-3
[43] = test system: SN12C
[44] = test system: SNB-19
[45] = test system: SNB-75
[46] = test system: SR
[47] = test system: SW-620
[48] = test system: T47D
[49] = test system: TK-10
[50] = test system: U-251
[51] = test system: UACC-257
[52] = test system: UACC-62
[53] = test system: UO-31
[54] = test system: CCRF-CEM
[55] = test system: HL-60
[56] = test system: HT-29
[57] = test system: NCI-H522
[58] = test system: SF-539
[59] = test system: SK-MEL-5

COC(=O)C1=C(C(=O)OC)c2cc(OC)ccc2C(C(=S)N(C)C)S1 (stereo not given)
GI50 [1]: > 100 µM (inactive) | GI50 [2]: > 100 µM (inactive) | GI50 [3]: > 100 µM (inactive) | GI50 [4]: > 100 µM (inactive) | GI50 [5]: 19.2 µM (inactive) | GI50 [6]: 99.1 µM (inactive) | GI50 [7]: > 100 µM (inactive) | GI50 [8]: > 100 µM (inactive) | GI50 [9]: > 100 µM (inactive) | GI50 [10]: > 100 µM (inactive) | GI50 [11]: > 100 µM (inactive) | GI50 [12]: > 100 µM | GI50 [13]: > 100 µM (inactive) | GI50 [14]: 0.0111 µM (active) | GI50 [15]: > 100 µM (inactive) | GI50 [16]: > 100 µM (inactive) | GI50 [17]: > 100 µM (inactive) | GI50 [18]: > 100 µM (inactive) | GI50 [19]: > 100 µM (inactive) | GI50 [20]: > 100 µM (inactive) | GI50 [21]: > 100 µM (inactive) | GI50 [22]: > 100 µM (inactive) | GI50 [23]: > 100 µM (inactive) | GI50 [24]: > 100 µM (inactive) | GI50 [25]: > 100 µM (inactive) | GI50 [26]: > 100 µM (inactive) | GI50 [27]: > 100 µM (inactive) | GI50 [28]: > 100 µM (inactive) | GI50 [29]: > 100 µM (inactive) | GI50 [30]: > 100 µM (inactive) | GI50 [31]: > 100 µM (inactive) | GI50 [32]: > 100 µM (inactive) | GI50 [33]: > 100 µM (inactive) | GI50 [34]: > 100 µM (inactive) | GI50 [35]: > 100 µM (inactive) | GI50 [36]: > 100 µM (inactive) | GI50 [37]: > 100 µM (inactive) | GI50 [38]: > 100 µM (inactive) | GI50 [39]: > 100 µM (inactive) | GI50 [40]: > 100 µM (inactive) | GI50 [41]: > 100 µM (inactive) | GI50 [42]: > 100 µM (inactive) | GI50 [43]: > 100 µM (inactive) | GI50 [44]: > 100 µM (inactive) | GI50 [45]: > 100 µM (inactive) | GI50 [46]: > 100 µM (inactive) | GI50 [47]: > 100 µM (inactive) | GI50 [48]: > 100 µM (inactive) | GI50 [49]: > 100 µM (inactive) | GI50 [50]: > 100 µM (inactive) | GI50 [51]: > 100 µM (inactive) | GI50 [52]: > 100 µM (inactive) | GI50 [53]: > 100 µM (inactive)

CN(Cc1cc(C(C)(C)C)cc(Br)c1O)Cc1cc(C(C)(C)C)cc(Br)c1O
GI50 [1]: 3.69 µM (inactive) | GI50 [2]: 2.75 µM (inactive) | GI50 [3]: 3.52 µM (inactive) | GI50 [4]: 2.94 µM (inactive) | GI50 [5]: 4 µM (inactive) | GI50 [6]: 3.4 µM (inactive) | GI50 [54]: 2.7 µM (inactive) | GI50 [7]: 12.2 µM (inactive) | GI50 [8]: 6.1 µM (inactive) | GI50 [9]: 3.83 µM (inactive) | GI50 [11]: 3.05 µM (inactive) | GI50 [12]: 3.12 µM | GI50 [55]: 4.2 µM (inactive) | GI50 [13]: 4.08 µM (inactive) | GI50 [14]: 4.23 µM (inactive) | GI50 [56]: 4.48 µM (inactive) | GI50 [15]: 2.65 µM (inactive) | GI50 [16]: 1.72 µM (inactive) | GI50 [17]: 3.13 µM (inactive) | GI50 [18]: 2.52 µM (inactive) | GI50 [19]: 3.77 µM (inactive) | GI50 [20]: 4.28 µM (inactive) | GI50 [21]: 1.56 µM (inactive) | GI50 [22]: 2.15 µM (inactive) | GI50 [23]: 4.43 µM (inactive) | GI50 [24]: 4.5 µM (inactive) | GI50 [25]: 3.21 µM (inactive) | GI50 [26]: 4.58 µM (inactive) | GI50 [27]: 4.18 µM (inactive) | GI50 [28]: 3.15 µM (inactive) | GI50 [29]: 1.87 µM (inactive) | GI50 [57]: 2.84 µM (inactive) | GI50 [30]: 3.03 µM (inactive) | GI50 [31]: 2.15 µM (inactive) | GI50 [32]: 5.08 µM (inactive) | GI50 [33]: 5.52 µM (inactive) | GI50 [34]: 4.33 µM (inactive) | GI50 [35]: 2.96 µM (inactive) | GI50 [36]: 2.01 µM (inactive) | GI50 [37]: 2.21 µM (inactive) | GI50 [38]: 3.66 µM (inactive) | GI50 [39]: 4.02 µM (inactive) | GI50 [58]: 2.74 µM (inactive) | GI50 [40]: 5.14 µM (inactive) | GI50 [41]: 2.02 µM (inactive) | GI50 [59]: 2.76 µM (inactive) | GI50 [42]: 9.51 µM (inactive) | GI50 [43]: 4.19 µM (inactive) | GI50 [44]: 6.61 µM (inactive) | GI50 [45]: 3.66 µM (inactive) | GI50 [46]: 2.86 µM (inactive) | GI50 [47]: 3.48 µM (inactive) | GI50 [48]: 3.5 µM (inactive) | GI50 [49]: 2.17 µM (inactive) | GI50 [50]: 2.65 µM (inactive) | GI50 [51]: 2.48 µM (inactive) | GI50 [52]: 3.13 µM (inactive) | GI50 [53]: 3.61 µM (inactive)

CC(C)(C)c1cc(C2NCCO2)cc(C(C)(C)C)c1O (stereo not given)
GI50 [1]: 65.8 µM (inactive) | GI50 [2]: > 100 µM (inactive) | GI50 [4]: > 100 µM (inactive) | GI50 [5]: > 100 µM (inactive) | GI50 [6]: 45.9 µM (inactive) | GI50 [54]: > 100 µM (inactive) | GI50 [7]: > 100 µM (inactive) | GI50 [8]: > 100 µM (inactive) | GI50 [9]: 77.3 µM (inactive) | GI50 [11]: > 100 µM (inactive) | GI50 [12]: 57 µM | GI50 [55]: > 100 µM (inactive) | GI50 [13]: 30.1 µM (inactive) | GI50 [14]: 74.6 µM (inactive) | GI50 [56]: > 100 µM (inactive) | GI50 [15]: 79.3 µM (inactive) | GI50 [16]: 96.6 µM (inactive) | GI50 [17]: > 100 µM (inactive) | GI50 [18]: > 100 µM (inactive) | GI50 [19]: > 100 µM (inactive) | GI50 [21]: 76.7 µM (inactive) | GI50 [22]: 20.6 µM (inactive) | GI50 [23]: > 100 µM (inactive) | GI50 [24]: > 100 µM (inactive) | GI50 [25]: > 100 µM (inactive) | GI50 [26]: > 100 µM (inactive) | GI50 [27]: > 100 µM (inactive) | GI50 [28]: 51.4 µM (inactive) | GI50 [29]: > 100 µM (inactive) | GI50 [57]: > 100 µM (inactive) | GI50 [30]: > 100 µM (inactive) | GI50 [31]: > 100 µM (inactive) | GI50 [32]: > 100 µM (inactive) | GI50 [33]: > 100 µM (inactive) | GI50 [34]: 77.3 µM (inactive) | GI50 [35]: 82 µM (inactive) | GI50 [36]: > 100 µM (inactive) | GI50 [37]: 14.7 µM (inactive) | GI50 [38]: 32.4 µM (inactive) | GI50 [39]: 34.6 µM (inactive) | GI50 [58]: > 100 µM (inactive) | GI50 [40]: > 100 µM (inactive) | GI50 [41]: 35.2 µM (inactive) | GI50 [59]: > 100 µM (inactive) | GI50 [42]: 32.1 µM (inactive) | GI50 [43]: 89.7 µM (inactive) | GI50 [45]: 10.8 µM (inactive) | GI50 [46]: > 100 µM (inactive) | GI50 [47]: > 100 µM (inactive) | GI50 [48]: 0.0538 µM (active) | GI50 [49]: 37.1 µM (inactive) | GI50 [50]: 37.1 µM (inactive) | GI50 [51]: > 100 µM (inactive) | GI50 [52]: > 100 µM (inactive)
